Entries after “also recorded” stand apart in the source; their conditions may differ.
Columns and labels:
Assay type in all cases: cell-based
PKB [1] = experiment: Immunofluorescence microscopy with phospho-specific Ser473 PKB antibody in NIH 3T3 or Cos6 fibroblasts; conditions: for phosphorylation of PKB on S473 by compound alone: 10 min, starved Cos6 cells, without any serum
Experimental: We therefore tested the compound's effect on PKB S473 phosphorylation by immunofluorescence microscopy with a phospho-specific PKB antibody.
(§1) NIH 3T3 of Cos6 fibroblasts growing on PLL coated coverslips in DMEM containing 10% FCS were starved for 24 hours. Stimulation with c48/80 [10 μg/ml] was always carried out in the presence of 1% FCS for 10 min. Whereas cells growing in DMEM completely depleted of serum were used for experiments with cQ [15 μg/ml]. Where indicated, cells were pretreated with 100 μM LY294002 for 30 min or 500 nM RV001 for 15 min. After treatment cells were washed with PBS, fixed with 4% PFA and permeabilised with 0.25% Triton-X/PBS and washed extensively. After blocking in 1% BSA, cells were phalloidin stained and/or incubated with phospho-specific Ser473 PKB antibody (Cell Signalling) at 4° C. over night and a Fluorescein (FITC)—conjugated goat anti-mouse IgG (Jackson Immuno Research) at room temperature for 1 h. Nuclei were stained with Dapi. Coverslips were mounted on Mowiol containing slides and sealed before analysing on a Nikon Microscope.

NIH3T3 fibroblasts = experiment: MTT assay; conditions: 50 μM
Source text: However its inhibitory effects on stimulated cells were not as strong. The methods used were as for Example 2.

PKB [2] = target: T1, PKB (Mus musculus, UniProt P31750); experiment: Western blotting of the phospho-Akt content (FIG. 5); conditions: NIH3T3 cells, method as for FIG. 2
T1 construct: endogenous in cells; host or cells: NIH3T3
T1 sequence (P31750 whole entry): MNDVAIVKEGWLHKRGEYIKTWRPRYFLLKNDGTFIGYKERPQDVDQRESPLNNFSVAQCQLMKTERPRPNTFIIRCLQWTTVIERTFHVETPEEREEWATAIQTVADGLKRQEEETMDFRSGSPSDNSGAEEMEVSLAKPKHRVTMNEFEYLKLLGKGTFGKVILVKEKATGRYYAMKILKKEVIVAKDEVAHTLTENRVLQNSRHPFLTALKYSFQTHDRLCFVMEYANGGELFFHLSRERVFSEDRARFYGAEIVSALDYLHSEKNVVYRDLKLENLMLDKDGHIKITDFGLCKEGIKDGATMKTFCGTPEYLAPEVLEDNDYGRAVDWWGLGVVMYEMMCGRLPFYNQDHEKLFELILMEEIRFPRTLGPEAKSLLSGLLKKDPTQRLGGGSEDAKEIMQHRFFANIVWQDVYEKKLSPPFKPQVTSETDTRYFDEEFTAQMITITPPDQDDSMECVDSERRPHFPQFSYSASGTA
Experimental: (§2) In a typical method, NIH3T3 cells were grown in media (GibcoBRL) containing 10% NCS to near confluency in six well plates. The cells were starved using 0.5% serum for 2-3 days. The media was then removed and replaced with serum free media for 15 minutes. Subsequently, 1% NCS was added to reaction wells, and 0%, 1% and 10% NCS to control wells. After 20 minutes incubation, the compound was added, and the wells incubated for a further 15 minutes. Media was removed and sample buffer was added and the cells lysed, boiled, centrifuged.
(§3) Samples were subjected to gel electrophoresis by 10% SDS-PAGE and then Western blotted on to PVDF membrane (Biorad) according to standard protocols. Western blots were probed using primary antibodies against PKB purchased from New England Biolabs and secondary antibodies of goat anti-rabbit IgG coupled to horseradish peroxidase (Amersham). The membranes were then developed using a freshly prepared ECL solution according to standard protocols.
Western blotting of the phospho-Akt content was also monitored. The methodology used was the same as above.

PKB [3] = target: T1, PKB; experiment: Western blot monitoring PKB modulation in NIH3T3 cells (FIG. 2); conditions: 1% NCS, various concentrations, 15 minutes
Experimental: PKB is a protein downstream effector of PI3K, and becomes phosphorylated on (residues required for its activity) in response to the activation of PI3K. Natal Calf Serum (NCS) is a stimulator of PI3K and thus subsequently results in PKB activation. Therefore the positive control used in experiments is 10% serum and a negative control used is provided with no serum at all.
as §2, §3

Cos6 fibroblasts = experiment: Phalloidin staining of F-actin / actin remodelling in starved Cos6 fibroblasts; conditions: for insulin-stimulated actin remodelling: 15 μg/ml cQ and 5 μg/ml insulin
Experimental: as §1

Row | SMILES | Akt/PKB phosphorylation in starved cells (PKB [1]; 1 μM, starved cells) | inhibitory effects on Akt/PKB phosphorylation in stimulated cells (PKB [1]; 1 μM, stimulated cells, compared with 50 μM) | Akt/PKB phosphorylation in Insulin stimulated cells (PKB [1]; 50 μM, Insulin stimulated cells) | response with PTEN inhibition (increased PI(3,4,5)P3 levels) (PKB [1]; 50 μM, PTEN inhibition) | S473 phosphorylation with PI3-kinase inhibition (PKB [1]; 50 μM, Wortmannin or LY294002) | Akt/PKB phosphorylation on S473 in starved cells (PKB [1]; 50 μM, starved cells) | cytotoxicity (MTT assay) (NIH3T3 fibroblasts) | activation of PKB (phospho-Akt content, western blots, FIG. 5) (PKB [2]) | effect on PKB (phosphorylation of PKB, western blots, FIG. 2) (PKB [3]) | PKB activation with PTEN inhibitor RV001 (increased PI(3,4,5)P3 levels) (PKB [1]; 15 μg/ml cQ, 500 nM RV001 pretreatment, 0.2 μg/ml insulin, listed as cQ) | compound-induced PKB phosphorylation after PI3-kinase inhibition (PKB [1]; 15 μg/ml cQ, 30 min preincubation with 100 μM LY294002, listed as cQ) | effect of pretreatment on activation of PKB by serum (PKB [1]; 15 μg/ml, 10% FCS, starved cells) | phosphorylation of PKB on S473 by compound alone (PKB [1]; 15 μg/ml) | phosphorylation of PKB on S473 by compound alone (PKB [1]; 15 μg/ml, listed as cQ) | effect of serum on compound-induced PKB activation (PKB [1]; increasing concentrations of serum) | insulin-stimulated actin remodelling (Cos6 fibroblasts; 10 min) | insulin-stimulated actin remodelling (Cos6 fibroblasts; 10 min, listed as cQ) | stress fibers in starved fibroblasts (Cos6 fibroblasts; 15 μg/ml, 10 min, starved Cos6) | cytoskeleton reorganisation, dependence on PI3-kinase (Cos6 fibroblasts; 15 μg/ml, preincubation with 100 μM LY294002 for 30 min, listed as cQ) | F-actin organisation after treatment (Cos6 fibroblasts; 15 μg/ml, starved Cos6)
1 | Oc1ccc(CCCl)cc1Cc1cc(CCCl)ccc1O [Compound C, 3,3′-Methylenebis[1-(2-chloroethyl)-4-hydroxybenzene]] | still activatory on its own | not as strong | inhibitory on Akt/PKB phosphorylation | inhibited the response | increase of phosphorylation at this site | activate Akt/PKB phosphorylation on S473 | cytotoxic effects | can activate PKB |  |  |  |  |  |  |  |  |  |  |  | 
2 | COc1c(CO)cc(C)cc1CO [Compound F, 2,6-Bis(hydroxymethyl)-4-anisole] |  |  |  |  |  |  |  | can activate PKB | activators |  |  |  |  |  |  |  |  |  |  | 
3 | Oc1ccc(CCCl)cc1 [Compound Q] |  |  |  |  |  |  |  | can activate PKB |  | indirectly inhibits PKB activation after cQ challenge; also recorded: inhibited PI(3,4,5)P3 mediated PKB activation | strongly increased cQ induced PKB phosphorylation; also recorded: increased cQ induced PKB phosphorylation | completely abolished the activation of PKB by 10% FCS | induces phosphorylation of PKB | sufficient to induce phosphorylation of PKB on S473 residue | increasing concentrations of serum inhibit cQ induced PKB activation | inhibits insulin-stimulated actin remodelling | counteract insulin-stimulated actin remodelling; also recorded: interferes with insulin-stimulated stress fiber breakdown | induces the loss of stress fibers in starved fibroblasts | capable of reorganising the cytoskeleton independent of PI3-kinase | produces a disorganised cytoplasmic F-actin and an actin ring juxtaposed to the plasma membrane

Reference: US20090221702A1, “COMPOUNDS” (priority 2005, published 2009)
